Measured values reported in PubChem BioAssay (NCI).
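Test compounds were applied to cells in 96-well plates for 48 hours at 5 doses. TGI marks complete inhibition of growth.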

Experiments:
Test in all cases: NCI tumour cell line growth inhibition, 48 h
HT29 colon = tested on: HT29 colon
SF-539 CNS = tested on: SF-539 CNS
SF-268 CNS = tested on: SF-268 CNS
RPMI-8226 leukemia = tested on: RPMI-8226 leukemia
M14 melanoma = tested on: M14 melanoma
LOX IMVI melanoma = tested on: LOX IMVI melanoma
OVCAR-3 ovarian = tested on: OVCAR-3 ovarian
SNB-19 CNS = tested on: SNB-19 CNS
RXF 393 renal = tested on: RXF 393 renal
HCC-2998 colon = tested on: HCC-2998 colon
DU-145 prostate = tested on: DU-145 prostate
KM12 colon = tested on: KM12 colon
CAKI-1 renal = tested on: CAKI-1 renal
786-0 renal = tested on: 786-0 renal
OVCAR-8 ovarian = tested on: OVCAR-8 ovarian
SW-620 colon = tested on: SW-620 colon
IGROV1 ovarian = tested on: IGROV1 ovarian
SK-MEL-2 melanoma = tested on: SK-MEL-2 melanoma
BT-549 breast = tested on: BT-549 breast
HCT-15 colon = tested on: HCT-15 colon

Structure (SMILES) | TGI (HT29 colon) | TGI (SF-539 CNS) | TGI (SF-268 CNS) | TGI (RPMI-8226 leukemia) | TGI (M14 melanoma) | TGI (LOX IMVI melanoma) | TGI (OVCAR-3 ovarian) | TGI (SNB-19 CNS) | TGI (RXF 393 renal) | TGI (HCC-2998 colon) | TGI (DU-145 prostate) | TGI (KM12 colon) | TGI (CAKI-1 renal) | TGI (786-0 renal) | TGI (OVCAR-8 ovarian) | TGI (SW-620 colon) | TGI (IGROV1 ovarian) | TGI (SK-MEL-2 melanoma) | TGI (BT-549 breast) | TGI (HCT-15 colon)
CCOC(=O)C(C)(C(=O)OCC)/C(Cl)=C\Cl | > 100 µM | > 100 µM | > 100 µM | > 100 µM | > 100 µM | > 100 µM | > 100 µM | > 100 µM | > 100 µM | 0.988 µM | > 100 µM | > 100 µM | > 100 µM | > 100 µM | > 100 µM | > 100 µM | > 100 µM |  |  | 
COC(=O)[C@H]1C[C@H]1NC(=O)C(CC(=O)OCc1ccccc1)NC(=O)OCc1ccccc1 (some centres not stated) | > 100 µM | > 100 µM | > 100 µM | 50.2 µM | 52.1 µM | > 100 µM |  | > 100 µM |  | > 100 µM | > 100 µM | 77.1 µM |  | > 100 µM | > 100 µM | > 100 µM | > 100 µM | 56.9 µM | 55.9 µM | > 100 µM
CCCCCCCCOC(CO)CO | > 100 µM |  | > 100 µM | > 100 µM | > 100 µM | > 100 µM | > 100 µM | > 100 µM |  | > 100 µM |  |  | > 100 µM | > 100 µM | > 100 µM | > 100 µM | > 100 µM |  |  | > 100 µM
CC(=O)C1=C(C)Cn2c(=O)c3ccccc3c(=O)n2C1 | > 100 µM | > 100 µM | > 100 µM | > 100 µM | > 100 µM | > 100 µM | > 100 µM | > 100 µM | > 100 µM | > 100 µM |  | > 100 µM | > 100 µM | > 100 µM | > 100 µM | > 100 µM | > 100 µM | > 100 µM |  | > 100 µM
CC(O)C(N=Cc1nc(-c2ccccc2)oc1O)C(=O)O (configuration not stated) | > 100 µM | > 100 µM | > 100 µM | > 100 µM | > 100 µM | > 100 µM | > 100 µM | > 100 µM | > 100 µM | > 100 µM |  | > 100 µM | > 100 µM | > 100 µM | > 100 µM | > 100 µM | > 100 µM | > 100 µM |  | 
COc1ccc2c3c(n(Cc4ccccc4)c(=O)c2c1)-c1cc(OC)c(OC)cc1C3C (configuration not stated) | > 84.8 µM | 24.4 µM | > 63.6 µM | > 100 µM | > 100 µM | > 100 µM | > 100 µM | > 84.9 µM | 48.8 µM | > 100 µM |  | > 100 µM | > 100 µM | 27.7 µM | > 100 µM | > 100 µM | > 100 µM | 46 µM |  | > 100 µM
CCN(CC)CCCNc1nc(=O)[nH]c(C)c1C(=O)Nc1c2ccccc2nc2ccccc12 | 26.2 µM | 41.8 µM |  | 47.4 µM | > 100 µM | 45.4 µM | 51.6 µM | 62.2 µM | 97 µM | 80.6 µM | > 100 µM | 26.5 µM | 56 µM | 32.6 µM | 59.1 µM | > 100 µM | 72.6 µM | > 100 µM |  | 72.8 µM
O=C1CCCC/C1=C1\C(=O)Nc2cc(F)ccc21 | > 100 µM | > 100 µM | > 100 µM | > 100 µM | > 100 µM | > 100 µM |  | > 100 µM | > 100 µM | > 100 µM |  | > 100 µM | > 100 µM | > 100 µM | > 100 µM | > 100 µM | > 100 µM | > 100 µM |  | > 100 µM
O=C(O)c1ccc(-c2nc3ccc(Cl)cc3[nH]2)cc1 | > 100 µM | > 100 µM |  | > 100 µM | > 100 µM |  | > 100 µM | > 100 µM | > 100 µM | > 100 µM |  | > 100 µM | > 100 µM | > 100 µM | > 100 µM | > 100 µM | > 100 µM | > 100 µM | > 100 µM | > 100 µM
O=c1oc2ccccc2c(O)c1C1c2c(c3ccccc3oc2=O)Oc2c1c(=O)oc1ccccc21 | 98 µM |  | 94 µM | 87.9 µM |  | > 100 µM | > 100 µM | > 100 µM |  | 41.1 µM | > 100 µM | 57.9 µM | 69.3 µM | > 100 µM | > 100 µM | > 100 µM | > 100 µM | > 100 µM | 67.5 µM | > 100 µM
CC1(C)CC(=O)C2=C(C1)S/C(=C1/SC3=C(S1)C(=O)CC(C)(C)C3)S2 | > 251 µM | > 251 µM | > 251 µM | > 251 µM | > 251 µM | > 251 µM | > 251 µM | > 251 µM | > 251 µM | > 251 µM |  | > 251 µM |  | > 251 µM | > 251 µM | > 251 µM | > 251 µM | > 251 µM |  | > 251 µM
C=C1CCCCCCCCCCC12SCCC2CCCCSC (configuration not stated) | 61.4 µM | 38.3 µM | 67.4 µM | 46 µM | 50.1 µM | 34.2 µM | 34.1 µM | 52.2 µM | 50.4 µM | 39.2 µM | > 100 µM |  |  | 87.4 µM | 56.4 µM | 68.9 µM | 49.9 µM | 37.7 µM |  | 73.4 µM
Cc1cccc(/C=C2\CCCc3ccccc3C2=O)c1 | 46.6 µM | 34.4 µM | 29.6 µM | 45.8 µM | 34.6 µM | 37 µM | 78.7 µM | 90.3 µM |  |  | > 100 µM | 26.1 µM | > 100 µM | > 100 µM | 78.3 µM | 30.7 µM | 59.6 µM | 30.8 µM | 75.6 µM | 44.9 µM
CCCc1c[nH]c(-c2ccc(-c3cc(CCC)c(C=O)[nH]3)s2)c1 | 18.3 µM | 32.8 µM | 34.6 µM |  | 24.5 µM | 27.7 µM | 30.8 µM | 37 µM | 36.1 µM |  |  | 28.5 µM |  | 27.7 µM | 26.5 µM | 33.7 µM | 45.5 µM | 28.5 µM |  | 29.6 µM
